Test results reported in patent EP1189615B1, “ENDOPARASITICIDAL SYNERGISTIC COMBINATION CONTAINING CYCLIC DEPSIPEPTIDES AND PIPERAZINES” (Bayer HealthCare AG, priority 1999, dated 2000).
Like-named read-outs stand apart in the source and are kept apart here.

Tests used:
[1] = test system: Trichinella spiralis; conditions: in-vitro
Source text: (§1) Die Durchführung der biologischen Tests erfolgte entsprechend den bekannten Verfahren (Plant et. al. Pesticide Science, 1996, 48, S. 351 ff.).

[2] = test system: Heterakis spumosa; conditions: Maus
Source text: as §1

[3] = test system: Nematospiroides dibius; conditions: Maus
Source text: as §1

For `C1CNCCN1` [Piperazin], the Wirkung ([1]; Konzentration 500 µg/ml) was 0, the Wirkung ([1]; Konzentration 1000 µg/ml) was 0-1 and the Wirkung ([2]; Dosis 4 x 100 mg/kg) was 0 (Wurmreduktion <50 %). For the same compound, the Wirkung ([2]; Dosis 4 x 250 mg/kg) was 1 (Wurmreduktion 50-75 %), the Wirkung ([3]; Dosis 2 x 2000 mg/kg) was 2 (Wurmreduktion 75-90 %) and the Wirkung ([3]; Dosis 4 x 1000 mg/kg) was 1 (Wurmreduktion 50-75 %).
